{
  "source": "patent US11856951B2",
  "about": "“Method for managing resistance to insecticidal traits and chemicals using pheromones” (Provivi, Inc., priority 2015, dated 2024)",
  "origin": "cited, not measured here",
  "key": {"[1]": {"test_system": "mated female H. armigera", "conditions": "mated females"}, "[2]": {"test_system": "mated H. armigera"}, "[3]": {"test_system": "Female E. heros"}, "[4]": {"test_system": "virgin female H. zea"}, "[5]": {"test_system": "H. armigera males", "conditions": "wind tunnel assays"}},
  "data": [
    {"smiles": "CCCCCCCCCCCCCC(=O)O", "note": "[C14:0]", "values": [
      {"measurement": "electroantennogram response", "setting": "[1]", "value": "strong electroantennogram responses"}
    ]},
    {"smiles": "O=Cc1ccccc1", "note": "[benzaldehyde]", "values": [
      {"measurement": "attractiveness of an oviposition substrate", "setting": "[2]", "value": "significantly increase the attractiveness"}
    ]},
    {"smiles": "CCCCCCC=O", "note": "[Heptanal]", "values": [
      {"measurement": "attractiveness of an oviposition substrate", "setting": "[2]", "value": "significantly increase the attractiveness"}
    ]},
    {"smiles": "CCCC(C)CCCC(C)CCCC(C)C(=O)OC", "note": "(centres unmarked) [TMTD, methyl 2,6,10-trimethyltridecanoate]", "values": [
      {"measurement": "attraction to lures", "setting": "[3]", "value": "attracted"}
    ]},
    {"smiles": "C=C", "note": "[ethylene]", "values": [
      {"measurement": "correlation of concentration with calling behaviour", "setting": "[4]", "value": "positively correlated"}
    ]},
    {"smiles": "CCCCCCCCCCCCCCCC(=O)O", "note": "[C16:0]", "values": [
      {"measurement": "electroantennogram response", "setting": "[1]", "value": "strong electroantennogram responses"}
    ]},
    {"smiles": "CCCCCCCCCCCCCCCCCC(=O)O", "note": "[C18:0]", "values": [
      {"measurement": "electroantennogram response", "setting": "[1]", "value": "strong electroantennogram responses"}
    ]},
    {"smiles": "CCCC/C=C\\CCCCCCCCCCO", "note": "[Z11-16:OH]", "values": [
      {"measurement": "effect on male upwind flight", "setting": "[5]", "value": "inhibits male upwind flight"}
    ]}
  ]
}
